Data taken from article PMC12721191, “Oxidative hypoxia drives TGF-β1–induced fibrosis under normoxia” (Redox Biology, 2025).

Experiments:
[1] = Metabolic stability in pooled human liver microsomes; assay type: in vitro ADME; settings: with NADPH, 0–60 min, read-out: half-life (t1/2) in HLMs
Description: To initiate the reaction, NADPH generating system was added to the incubation samples and further incubated for specific time points (0, 5, 15, 30, 45, and 60 min). Then, sample aliquots were taken and terminated with cold acetonitrile.

colon = assay: Colonic histopathology in the BLM mouse study; assay type: in vivo, ICR mice; settings: BLM mice; ACF-2 10 mg/kg i.p. every 2 days or NIDB 60 mg/kg/day
Source text: Fixed left lung lobes were paraffin-embedded, sectioned (4 μm), and stained with H&E or MT. A blinded pathologist graded pulmonary fibrosis on the 1-8 Ashcroft scale; representative images illustrate typical lesions. Colon samples were processed by the swiss-roll method, stained with H&E, and scored for inflammation and erosion, which were combined into a composite histological score. All animal studies were approved by the Institutional Animal Care and Use Committee of Jeju National University (Approval ID: 2024-0058) and conducted in compliance with institutional guidelines. Male ICR mice (6 weeks old, average body weight 27 g) were purchased from […] (South Korea) and housed under controlled temperature (22 ± 2 °C) and humidity (0.0 ± 15.0 %) on a 12 hr light-dark cycle with free access to food and water. […] Colon tissue: Colons were harvested, flushed with 1xPBS, and prepared using the swiss-roll method before embedding in paraffin. Sections of 4 μm thickness were subjected to H&E staining as described above. Colonic injury was evaluated by two independent parameters: (i) inflammation score (0-3) and (ii) erosion score (0-3). A composite histological score was then calculated as the sum of inflammation and erosion scores for each sample.

A549 [2] = assay: Intracellular ROS staining (DHR123 microscopy, CM-H2DCFDA flow cytometry); assay type: cell-based, human
Description: CellROX™ Deep Red or DHR123 fluorescence microscopy, and CM-H2DCFDA flow cytometry, were used to quantify intracellular ROS.
Dihydrorhodamine (DHR)123: Cells were similarly seeded at 3 × 10⁴ cells per well in 1 mL of medium on Cell Culture Slide I. After the desired treatments and incubation times, the medium was removed, cells were washed with PBS, and 10 µM Dihydrorhodamine 123 in PBS was applied for 30 min at 37 °C. Hoechst 33342 (0.5 µg/mL) was added for the final 10 min. Cells were then washed in PBS and imaged with the EVOS™ M7000 system in the Cy2 channel.
CM-H₂DCFDA: Cells (2 × 10⁵) were plated in 2 mL of medium per well in a 6-well plate. After treatment for the indicated times, the medium was removed, and cells were washed once with PBS. CM-H₂DCFDA (10 µM) in PBS was added for 30 min at 37 °C, followed by a 10 min equilibration in PBS. Cells were then detached with trypsin for 1 min, neutralized with FBS, pelleted by centrifugation, and resuspended in PBS. Fluorescence was measured using a CytoFLEX LX flow cytometer (excitation/emission: 485/520 nm).

A549 [3] = assay: Western blot of HIF-1α, fibrosis and EMT markers in A549; assay type: cell-based, human

Structure (SMILES): COc1ccc(-c2c(-c3ccc(O)c(OC)c3)oc3cc(OC)c(OC)cc3c2=O)cc1 [ACF-2]
- half-life at 1 µM [1]: > 1 h
- composite histological score of colon (inflammation + erosion) (colon): did not induce colonic inflammation or erosion
- TGF-β1-induced ROS (DCFDA flow cytometry) (A549 [2]; A549, ACF-2 7 μM, TGF-β1 6 h): effectively suppressed TGF-β1-induced ROS elevation
- TGF-β1-induced ROS (DHR123) (A549 [2]; A549, TGF-β1 6 h, NAC 10 mM as comparator): reduced TGF-β1-induced ROS accumulation even more effectively than NAC
- BLM-induced HIF-1α levels (Western blot) (A549 [3]; A549, BLM 15 μM, 10 h): effectively suppressed
- fibronectin, α-SMA, N-cadherin (Western blot) (A549 [3]; A549, TGF-β1 24 h, ACF-2 7 μM): coordinated suppression of fibrosis markers (fibronectin, α-SMA) and EMT marker (N-cadherin)
- COL3A1 and COL4A6 (Western blot) (A549 [3]; A549, TGF-β1 24 h, ACF-2 co-treatment): dose-dependent reduction of fibrosis markers COL3A1 and COL4A6
